Laboratory results taken from patent US4435381A, “Thiouronium phosphonates for use in dental treatments” (priority 1983, dated 1984).
In brackets after ≈: the same amount, converted by molar mass. Like-named read-outs stand apart in the source and are kept apart here.

Experiments:
S. mutans [1] = assay: Minimum inhibitory and minimum bactericidal concentrations against S. mutans grown in a typical culture medium; type: cell-based; settings: Streptococcus mutans; for MBC: read-out: MBC (minimum bactericidal concentration); for MIC: read-out: MIC (minimum inhibitory concentration)
S. mutans [2] = assay: Plaque inhibition in the hamster (S. mutans infected); type: in vivo, Golden Syrian hamsters; settings: Test 2; mean scoring value (approximate percentage of surface); 28 days, 0.3% Methocel suspension, 200 μl per treatment; Methocel control 13.96 ± 1.49; significantly different from control at p ≤ 0.01
Experimental: Representative thiouronium phosphonates were tested against hamsters as in vivo subjects, as follows.
Golden Syrian hamsters (3-4 wks of age), obtained from GIBCO Animal Resources Laboratories, Madison, Wis. were used in all studies. Upon receipt, the animals were randomly distributed into cages of three animals of the same sex per cage. Experimental groups consisted of twelve animals, six males and six females. Food (Diet 2000, General Biochemicals Co.) and deionized water were allowed ad libitum. Food consumption was monitored three times a week while animal weights were checked twice a week.
After an acclimation period of 10 days, the oral cavities of the hamsters were infected with a cariogenic strain of S. mutans (ATCC 10449, SR 500). This was accomplished by injecting […] of a 24 hr. culture grown static in Todd-Hewitt broth (supplemented with 0.5% lactalbumin hydrolysate) into their mouths, and by adding 2 ml/100 ml of the culture to their drinking water. This was repeated daily for four days. On the fifth day, fresh water was given to the hamsters.
To insure that the organism had actually implanted, the oral cavity of each hamster was swabbed on the sixth day. […]
After all data had been recorded, the codes were broken, the data re-grouped and the various treatment groups compared by a non-parametric one-way analysis of variance.

S. mutans [3] = assay: Acid inhibition (AI): 0.1 normal NaOH needed to neutralize acid produced by S. mutans from sucrose after 48 hours; type: cell-based; settings: trypticase-yeast medium containing sucrose, 48 hours incubation
Experimental: Acid inhibition (AI) is a measure of acid production when S. mutans attacks sucrose to form pyruvic and lactic acids. The organism is added to a culture medium (trypticase-yeast) containing sucrose, and after 48 hours incubation, the quantity of 0.1 normal NaOH (in ml) needed to neutralize the acid is measured.

[4] = against S. mutans grown in a typical culture medium

Row | SMILES | MBC (S. mutans [1]; [4]) | MIC (S. mutans [1]; [4]) | Molar Surface Covered with Plaque (S. mutans [2]) | AI (acid inhibition; amount of 0.1 normal NaOH required) (S. mutans [3]) | MBC (S. mutans [1]) | MIC (S. mutans [1])
1 | CCCCCCCCCCCCCSC(=N)N [n=13, R=C6 H5, Tridecyl thiouronium phenylphosphonate] | 2 µg/mL (≈ 7.74 µM) | 1 µg/mL (≈ 3.87 µM) | 7.06 ± 1.16 | 0.3 mL |  | 
2 | CCCCCCCCCCCCCCSC(=N)N [n=14, R=CH3, n-Tetradecyl thiouronium methanephosphonate] |  |  |  | 0.5 mL | 7.8 µg/mL (≈ 28.6 µM) | 1 µg/mL (≈ 3.67 µM)
3 | CCCCCCCCCCCSC(=N)N [n=11, R=C6 H5] | 2 µg/mL (≈ 8.68 µM) | 1 µg/mL (≈ 4.34 µM) |  | 0.5 mL |  | 
4 | CCCCCCCCCCSC(=N)N [n=10, R=C6 H5, n-Decyl thiouronium phenylphosphonate] | 3.9 µg/mL (≈ 18 µM) | 2 µg/mL (≈ 9.24 µM) |  | 1.25 mL |  | 
